Source: ChEMBL document CHEMBL3046045, “Synthesis of 7-methoxyapigeninidin and its fungicidal activity against Gloeocercospora sorghi” (1996)
Activity calls are given as the source filed them. The calls are words filed in the database; no cut-off is given here.

What was measured:
Pyricularia oryzae [1] = assay: Antifungal activity against Magnaporthe oryzae assessed as radial growth inhibition at 100 ppm; format: functional, organism-based
Microdochium sorghi [2] = assay: Antifungal activity against Gloeocercospora sorghi in potato dextrose agar medium assessed as inhibition of radial growth at 100 ppm; format: functional
Pyricularia oryzae [3] = assay: Antifungal activity against Magnaporthe oryzae assessed as inhibition of spore germination at 100 ppm; format: functional, organism-based
Microdochium sorghi [4] = assay: Antifungal activity against Gloeocercospora sorghi in potato dextrose agar medium assessed as inhibition of radial growth; format: functional
Pyricularia oryzae [5] = assay: Antifungal activity against Magnaporthe oryzae assessed as inhibition of spore germination; format: functional

SMILES	inhibition (Pyricularia oryzae [1])	inhibition at 100 ppm (Microdochium sorghi [2]) [%]	inhibition (Pyricularia oryzae [3])	I50 (Microdochium sorghi [4]) [ppm]	I50 (Pyricularia oryzae [5]) [ppm]
Oc1ccc(-c2ccc3c(O)cc(O)cc3[o+]2)cc1 [APIGENIDIN]	inactive	25	inactive		
COc1cc(O)c2ccc(-c3ccc(O)cc3)[o+]c2c1.[Cl-] [7-METHOXYAPIGENINIDIN]	inactive			50	50
